# In patent US20070179155A1, “N-phenyl-piperazine derivatives and methods of prophylaxis or treatment of 5ht2c receptor associated diseases” (priority 2003, published 2007):
# Assays:
# 5HT2B receptor = 5HT2B receptor (Homo sapiens, UniProt P41595); assay: Activity against the 5HT2B receptor (selectivity); format: cell-based
# human 5HT2C receptor = biological target: T1, human 5HT2C receptor (Homo sapiens, UniProt P28335); assay: Intracellular IP3 accumulation assay (IP Accumulation Assay); format: cell-based; conditions: HEK293 cells transfected with human 5HT2C receptor cDNA
# T1 construct: expressed in transfected cells; host or cells: HEK293
# T1 sequence (P28335 33-458): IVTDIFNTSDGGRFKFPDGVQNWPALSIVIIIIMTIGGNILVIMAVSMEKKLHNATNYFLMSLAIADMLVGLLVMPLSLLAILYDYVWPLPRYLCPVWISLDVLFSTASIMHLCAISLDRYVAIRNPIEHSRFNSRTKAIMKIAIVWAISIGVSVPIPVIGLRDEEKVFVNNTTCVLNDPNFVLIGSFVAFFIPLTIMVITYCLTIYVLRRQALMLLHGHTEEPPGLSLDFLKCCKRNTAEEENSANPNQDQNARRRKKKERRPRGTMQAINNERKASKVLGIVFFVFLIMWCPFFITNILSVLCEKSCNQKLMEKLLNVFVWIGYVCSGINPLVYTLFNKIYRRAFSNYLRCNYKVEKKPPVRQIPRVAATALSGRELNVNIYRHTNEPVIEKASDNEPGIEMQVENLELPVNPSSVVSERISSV
# Method: HEK293 cells were transfected in 15 cm sterile dishes with or without (control) 16 ug of human 5HT2C receptor cDNA [for example see, Saltzman, A. G., et al. Biochem. Biophys. Res. Commun. 181, 1469-1478 (1991)] using 25 ul of lipofectamine. Cells were then incubated for 3-4 hours at 37° C./5% CO2 and then transfection media was removed and replaced with 100 ul of DMEM. Cells were then plated onto 100 cm sterile dishes. The next day cells were plated into 96 well PDL microtiter plates at a density of 55K/0.2 ml. Six hours latter, media was exchanged with [^3H]inositol (0.25 uCi/well) in inositol free DMEM and plates were incubated at 37° C./5% CO2 overnight. The next day, wells were aspirated and 200 ul of DMEM containing test compound, 10 uM pargyline, and 10 mM LiCl was added to appropriate wells. Plates were then incubated at 37° C./5% CO2 for three hours followed aspiration and by addition of fresh ice cold stop solution (1M KOH, 19 mM Na-borate, 3.8 mM EDTA) to each well. Plates were kept on ice for 5-10 min and the wells were neutralized by addition of 200 ul of fresh ice cold neutralization solution (7.5% HCl). Plates were then frozen until further processing is desired. The lysate was then transferred into 1.5 ml Eppendorf tubes and 1 ml of chloroform/methanol (1:2) was added/tube. […]
# basal food intake = assay: Inhibition of basal food intake in rats; format: in vivo, Male Sprague-Dawley rats; conditions: p.o.; for ED50: Rattus norvegicus, po
# Method: Male Sprague-Dawley rats (225-325 g) were accustomed to a reverse day/night schedule (lights on 6:30 pm to 10:30 am) for at least 10 days prior to testing. On the test day, the animals were weighed and placed into individual cages (no bedding) at 9:00 am with free access to water. At 10:00 am, animals were injected with test compound or vehicle (2 ml/kg, p.o.), with treatment groups counter-balanced according to animal weights. Immediately upon lights out at 10:30 am, each animal was presented with a pre-weighed amount of food in a dish. Food consumption over different time points was then determined by weighing the food cup at 2, 4, 6 and 22 hrs after the food was presented. Thus, food consumption was measured at 2.5, 4.5, 6.5, and 22.5 hrs post-injection.
# 5HT2A receptor = 5HT2A receptor (Homo sapiens, UniProt P28223); assay: EC50 against the 5HT2A receptor (selectivity); format: cell-based
# Chain of 5HT2A receptor (P28223 whole entry): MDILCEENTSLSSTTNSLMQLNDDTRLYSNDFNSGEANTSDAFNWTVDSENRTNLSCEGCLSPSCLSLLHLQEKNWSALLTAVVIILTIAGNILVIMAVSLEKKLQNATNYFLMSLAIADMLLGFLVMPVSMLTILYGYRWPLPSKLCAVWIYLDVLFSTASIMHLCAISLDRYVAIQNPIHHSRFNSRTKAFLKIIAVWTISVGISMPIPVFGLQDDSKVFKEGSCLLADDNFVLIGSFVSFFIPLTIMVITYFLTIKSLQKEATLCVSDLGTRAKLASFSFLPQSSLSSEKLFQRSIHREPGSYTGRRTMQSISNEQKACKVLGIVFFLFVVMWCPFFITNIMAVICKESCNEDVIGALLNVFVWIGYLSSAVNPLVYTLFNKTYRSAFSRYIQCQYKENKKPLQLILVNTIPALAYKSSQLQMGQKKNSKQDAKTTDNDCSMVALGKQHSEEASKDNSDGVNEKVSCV
# Chain of 5HT2B receptor (P41595 whole entry): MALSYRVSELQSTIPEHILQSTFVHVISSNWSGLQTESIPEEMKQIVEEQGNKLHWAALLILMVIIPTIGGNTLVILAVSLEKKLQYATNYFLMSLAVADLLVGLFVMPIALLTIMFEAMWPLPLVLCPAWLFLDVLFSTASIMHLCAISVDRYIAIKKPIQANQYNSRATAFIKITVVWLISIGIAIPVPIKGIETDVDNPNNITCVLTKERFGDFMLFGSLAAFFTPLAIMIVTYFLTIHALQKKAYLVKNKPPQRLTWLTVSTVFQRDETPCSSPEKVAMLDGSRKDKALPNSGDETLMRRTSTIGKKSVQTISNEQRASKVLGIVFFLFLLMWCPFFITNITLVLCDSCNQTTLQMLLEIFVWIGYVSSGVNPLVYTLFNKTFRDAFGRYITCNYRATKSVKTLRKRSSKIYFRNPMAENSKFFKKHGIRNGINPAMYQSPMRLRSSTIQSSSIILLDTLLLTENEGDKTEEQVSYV
SMILES,activity against the 5HT2B receptor (5HT2B receptor),EC50 (human 5HT2C receptor) [µM],"ED50 (basal food intake; 2 h, 2 hours after food presentation) [µmol/kg]","ED50 (basal food intake; 4 h, 4 hours after food presentation) [µmol/kg]","ED50 (basal food intake; 6 h, 6 hours after food presentation) [µmol/kg]","ED50 (basal food intake; 22 h, 22 hours after food presentation) [µmol/kg]","effect on food intake relative to vehicle-treated controls (basal food intake; all doses, first 4 hr after food presentation)",duration of food intake inhibition (basal food intake; highest dose tested),EC50 (5HT2A receptor) [µM]
"C[C@@H]1CNCCN1c1cc(Cl)ccc1F [Compound 44, (R)-1-(5-Chloro-2-fluoro-phenyl)-2-methyl-piperazine]",essentially inactive,0.008,33,58,97,441,inhibited food intake relative to vehicle-treated controls,maintained to 22 hrs after food presentation,0.529
"C[C@@H]1CNCCN1c1cccc(Cl)c1F [Compound 23, (R)-1-(3-Chloro-2-fluoro-phenyl)-2-methyl-piperazine]",essentially inactive,0.0074,,,,,,,0.044
